Tests used:
COX-2 (human) = target: T1, COX-2 (human) (Homo sapiens, UniProt P35354); assay: COX-2 (human) Inhibitor Screening Assay Kit, in vitro ELISA method; type: biochemical; conditions: Cayman Chemical # 701080
T1 construct: purchased Cayman Chemical 701080
T1 sequence (P35354 18-604): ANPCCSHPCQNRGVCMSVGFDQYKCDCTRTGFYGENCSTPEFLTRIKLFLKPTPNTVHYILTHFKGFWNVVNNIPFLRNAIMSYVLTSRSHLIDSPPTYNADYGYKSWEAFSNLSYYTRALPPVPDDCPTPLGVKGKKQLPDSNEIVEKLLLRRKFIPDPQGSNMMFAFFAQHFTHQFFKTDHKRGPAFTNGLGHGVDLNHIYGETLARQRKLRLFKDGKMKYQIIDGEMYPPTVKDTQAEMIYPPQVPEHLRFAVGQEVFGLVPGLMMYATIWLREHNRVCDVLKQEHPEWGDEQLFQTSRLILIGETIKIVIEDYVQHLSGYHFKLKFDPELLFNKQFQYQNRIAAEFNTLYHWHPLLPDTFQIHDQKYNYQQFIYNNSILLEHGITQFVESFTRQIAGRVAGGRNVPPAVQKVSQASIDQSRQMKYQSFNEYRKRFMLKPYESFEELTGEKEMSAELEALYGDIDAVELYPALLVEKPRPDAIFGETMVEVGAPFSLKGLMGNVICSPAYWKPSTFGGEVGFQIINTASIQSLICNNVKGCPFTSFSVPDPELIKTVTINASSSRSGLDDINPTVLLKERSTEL
From the text: Measurement of the IC50 in an in vitro test (ELISA method - COX-2 (human) Inhibitor Screening Assay Kit, # 701080, Cayman Chemical) gave the following results.

[1] = system: human pulmonary epithelium cell line BEAS-2B; assay: Toxicity as lactate dehydrogenase (LDH) release after LPS or Poly I:C stimulus; type: cell-based; conditions: stimulus LPS or PIC, PC and PEA 1 µM for 48h, Figure 1
Experimental: (§1) The cells were treated with PC and PEA 1 µM for 48h. The ROS (which are powerful oxidants) were measured as fluorescence emission of the intracellular probe DCF-DA (dichlorofluorescein diacetate). The toxicity was measured as release of an intracellular enzyme (lactate dehydrogenase LDH) in the extracellular medium; the release is proportional to the toxicity and is measured with a spectrophotometer.

[2] = system: interleukin 8 (IL-8) transcript; assay: IL-8 transcript by real-time PCR after inflammatory stimulus; type: cell-based, human; conditions: BEAS-2B, bacterial (LPS) or viral (PIC) stimulus, PC and PEA 1 µM for 24h, Figure 2
Experimental: The cells were treated with PC and PEA 1 µM for 24h. The interleukin 8 (IL-8) transcript was measured by means of real-time PCR.

[3] = system: human pulmonary epithelium cell line BEAS-2B; assay: ROS measured as fluorescence emission of intracellular probe DCF-DA after LPS or Poly I:C stimulus; type: cell-based; conditions: stimulus LPS or PIC, PC and PEA 1 µM for 48h, Figure 1
Experimental: as §1

[4] = system: human pulmonary epithelium BEAS-2B; assay: Cell proliferation by crystal violet colouring; type: cell-based; conditions: tested in the range 10 nM - 1 µM
Experimental: (§2) In a model of human pulmonary epithelium BEAS-2B (ATCC - CRL-9609), PC and PEA were tested in the range 10 nM - 1 µM.

[5] = system: transcripts for subunits 2 and 4 of complex IV of the mitochondrial respiratory chain (COX2 and COX4) and two subunits of the ATP synthase mitochondrial enzyme …; assay: Mitochondrial respiratory chain and ATP synthase transcripts by real-time PCR; type: cell-based, human; conditions: BEAS-2B, bacterial (LPS) or viral (PIC) stimulus, PC and PEA 1 µM for 24h, Figure 3
Experimental: The cells were treated with PC and PEA 1 µM for 24h. The transcripts for subunits 2 and 4 of complex IV of the mitochondrial respiratory chain (COX2 and COX4) and the transcripts for two subunits of the ATP synthase mitochondrial enzyme (ATP mit and ATP n) were measured by means of real-time PCR.

[6] = system: human pulmonary epithelium BEAS-2B; assay: MTT test for cytotoxicity; type: cell-based; conditions: tested in the range 10 nM - 1 µM
Experimental: as §2

CCCCCCCCCCCCCCCC(=O)NCCO [PEA, palmitoylethanolamide]
IC50 (COX-2 (human)): 575 nM
toxicity (LDH release in the extracellular medium) [1]: protect from oxidative stress and toxicity
production of inflammatory cytokines (IL-8 transcript) [2]: reduce the production of inflammatory cytokines
oxidative stress (ROS, DCF-DA fluorescence) [3]: protect from oxidative stress
effect on cell growth (proliferation, crystal violet) [4]: no effect on cell growth
activation of the mitochondrial respiratory burst (COX2, COX4, ATP mit, ATP n transcripts) [5]: reduce activation of the mitochondrial respiratory burst
toxicity (MTT test) [6]: absence of toxicity
